According to patent publication US10568913B2, “Method for generating mature β-like cells” (The University of Western Australia, priority 2013, dated 2020):

Assays:
[1] = versus calcitriol; cited from earlier work
Ngn3+ islet progenitors = test: DsRed+ cell differentiation from purified Ngn3-GFP+ progenitors (Ngn3-GFP/RIP-DsRed mice); assay type: cell-based, mouse; conditions: calcitriol 10 nM with or without Nic 10 mM, day 4 (FIG. 17)
Description: Approximately 7,500 E15.5 [at which the number of Ngn3^+ progenitors is peaked] mouse fetuses from both MIPGFP and Ngn3-GPF/RIP-DsRed lines were used for enrichment/purification of Ngn3^+ progenitors. Mouse pancreases were dissected under a stereoscope (Olympus, Tokyo, Japan). Eleven human fetal pancreases were collected from 18-22 week-fetuses (Table 1) and minced. Both mouse and human pancreases were enzymatically dissociated into single cells under aseptic conditions. Rat anti-E-cadherin (E-cad, also known as CD324 or uvomorulin) monoclonal antibody IgG2a (Invitrogen, Carlsbad), Alexa Fluor 647 anti-E-cad (eBioscience), rat anti-integrin α6 subunit (α6, also known as CD49f) mAb IgG2a, phycoerythrin (PE) rat anti-human α6 (Becton Dickson Biosciences, San Jose), PE anti-mouse CD133 (also known as prominin I, eBioscience), biotin rabbit anti-rat immunoglobumins, allophycocyanin (APC) rat anti-mouse CD45 and APC rat anti-mouse TER119 and streptavidin APC-Cy7, streptavidin PE-Texas Red, streptavidin APC (BD Biosciences) or streptavidin Alexa Fluor 750 (Invitrogen), were used. After each incubation with antibodies, cells were washed twice with FACS buffer (0.1% bovine serum albumin in phosphate buffered saline) and finally re-suspended in this buffer containing 1 μg/ml propidium iodide (PI) or 4′,6-diamidino-2-phenylindole (DAPI) for sorting (FACSAria II, Becton Dickson Labware, Bedford). The purity of sorted cells was determined by post-sort analysis. Data presented represented cell samples with over 90% purity.
Sorted β-cell progenitor-enriched cells or Ngn3^+ β-cell progenitors were differentiated in 96-, 12- or 6-well plates (BD Labware). The basal differentiation medium is Dulbecco's Modified Eagle Medium (Invitrogen) with 5.75 or 27.5 mM D-glucose supplemented with 1% B27 (Invitrogen) and 100 μg/ml streptomycin and 100 units/ml penicillin. Growth factor-reduced Matrigel (200 μg/ml, BD Biosciences) was overlayed onto cells in the presence of various potential regulators. […]
The number of β-like cells was directly quantified under a fluorescence microscope. […]

[2] = system: differentiated β-like cells; test: Maturation of differentiated β-like cells, glucose stimulated insulin secretion; assay type: cell-based, mouse; conditions: calcitriol 10 nM, 4 days; glucose 2.75 / 27.5 mM (FIG. 19)
Procedure: The differentiated cells were washed twice with warm PBS. After pre-incubation with Krebs-Ringer buffer at 37° C. for 90 min, the cells were incubated at 37° C. for 60 min with basal D-glucose (2.75 mM) or stimulus D-glucose (27.5 mM). Then each conditioned medium was collected to determine the insulin concentration using an insulin ELISA kit (Mercodia AB, Uppsala, Sweden). Nic-containing differentiation medium was removed from the differentiated β-like cells. A warmed maturation medium was added to the differentiated cells. The maturation medium is Dulbecco's Modified Eagle Medium (Invitrogen) with 5.75 mM D-glucose without nicotinamide (10 mM), 2% B27 (Invitrogen) and 100 μg/ml streptomycin and 100 units/ml penicillin supplemented with calcitriol (10 nM). Cultures were incubated in 10% CO2 90% air at 37° C., for 4 days.

NeuroD = test: qRT-PCR of genes in matured insulin-secreting cells; assay type: cell-based, mouse; conditions: β-like cells treated with calcitriol
Procedure: Real time quantitative RT-PCR analysis was carried out using power SYBR Green PCR Master Mix and SYBR® Green Cells-to-Ct™ Kits purchased from Applied Biosystems (Foster City, USA). cDNA was amplified by PCR: 95° C. for 10 min, followed by 40 cycles of 95° C. for 15 sec and 60° C. for 1 min. The number of cycles of threshold (Ct) was measured with an ABI Prism 7900HT Sequence Detection System (Applied Biosystems) or a Rotor-Gene RG-3000 (Corbet Research, Sydney, Australia). All quantifications (ΔCt) were normalized with the internal 18s rRNA level (2^−Δct). Nic-containing differentiation medium was removed from the differentiated β-like cells. A warmed maturation medium was added to the differentiated cells. The maturation medium is Dulbecco's Modified Eagle Medium (Invitrogen) with 5.75 mM D-glucose without nicotinamide (10 mM), 2% B27 (Invitrogen) and 100 μg/ml streptomycin and 100 units/ml penicillin supplemented with calcitriol (10 nM). Cultures were incubated in 10% CO2 90% air at 37° C., for 4 days.

MIN6 cells = test: Glucose stimulated insulin secretion in highly passaged MIN6 cells; assay type: cell-based, mouse; conditions: FIG. 20, 21
Procedure: The differentiated cells were washed twice with warm PBS. After pre-incubation with Krebs-Ringer buffer at 37° C. for 90 min, the cells were incubated at 37° C. for 60 min with basal D-glucose (2.75 mM) or stimulus D-glucose (27.5 mM). Then each conditioned medium was collected to determine the insulin concentration using an insulin ELISA kit (Mercodia AB, Uppsala, Sweden). MIN6 cells were routinely maintained in a published protocol which contains Dulbecco's modified Eagle's medium (DMEM) containing 25 mM glucose, supplemented with 10% fetal calf serum, 2 mM L-glutamine, 25 mM Hepes, and 285 μM 2-mercaptoethanol. MIN6 cells presented in this study were at passages 30-40 (low passage, LP) or passages 60-70 (high passage, HP). All assays used MIN6 grown to 70-80% confluence unless otherwise stated.

Row | SMILES | hypercalcaemic effect, fold less [1] [fold] | β-cell differentiation of Ngn3+ islet progenitors (number of DsRed+ cells) (Ngn3+ islet progenitors) | maturation of differentiated β-like cells (GSIS) [2] | NeuroD expression (NeuroD) | glucose stimulated insulin secretion (GSIS) in dedifferentiated, highly passaged MIN6 cells (MIN6 cells)
1 | C[C@H](CC#CC(C)(C)O)[C@H]1CC[C@@H]2/C(=C/C=C3C[C@@H](O)C[C@H](O)C3)CCC[C@@]21C [Inecalcitol, 19-nor-14-epi-23-yne calcitriol] | 480 |  |  |  | 
2 | C=C1/C(=C\C=C2/CCC[C@]3(C)[C@@H]([C@H](C)CCCC(C)(C)O)CC[C@@H]23)C[C@@H](O)C[C@@H]1O [Calcitriol, 1, 25 (OH)2 vitamin D3] |  | does not promote β-cell differentiation | promoted the maturation | further up-regulated | partially restores GSIS
